# Test results as given in patent publication US20070219245A1, “METHOD OF USE FOR SUBSTITUTED DIPIPERIDINE CCR2 ANTAGONISTS” (priority 2006, published 2007).
# Columns and labels:
# Assay type in all cases: in vivo
# NON (NONcNZO10/LtJ) mice [1] = assay: Insulin sensitivity model: insulin tolerance test; conditions: for Blood Glucose: mean ± SEM
# Experimental: (§1) In an insulin sensitivity model in mice, four month old male NON (NONcNZO10/LtJ) mice in four treatment groups (treated: 25 mg/kg, 50 mg/kg and 100 mg/kg and non-treated vehicle control) were fed LabDiet® 5K20 for 28 days. The treated groups were dosed (0.1 mL, ip, bid) with a test compound from Day 1 to Day 28. The non-treated group was dosed (0.1 mL, ip, q.d.) with vehicle from Day 1 to Day 28. Body weight and blood glucose were monitored once per week and an insulin tolerance test was performed by i.p. injection of […] insulin, then fed blood glucose levels were measured at 0, 15, 30, 60, 90, and 120 min after insulin administration. The insulin tolerance test blood glucose levels at the time points the sample were taken after insulin administration are shown in Table 5. Blood glucose levels were measured using a Glucometer. MCP-1 and insulin were measured by ELISA. Plasma glucose and FFA were measured using Weko kits. The statistical analysis for p value was performed using the program Prism (Graphpad, Monrovia, Calif.) with the Student t-test (unpaired). All data are presented as the mean ± standard error of the mean (SEM).
# lean mice = assay: Diet induced obesity model, treatment arm TA2 (lean mice, regular chow diet); conditions: 100 mg/kg ip bid Day 1-28, mean ± SEM
# Experimental: (§2) In a diet induced obesity (DIO) model in mice, two treatment arms of mice were tested. In the first treatment arm (TA1), DIO mice in four treatment groups (treated: 25 mg/kg, 50 mg/kg and 100 mg/kg and non-treated vehicle control) were fed a high fat diet. In the second treatment arm (TA2), lean mice in two treatment groups (treated: 100 mg/kg and non-treated vehicle control) were fed a regular chow diet. After 7 days acclimation to the diet, the treated groups in each arm were dosed (0.1 mL, ip, bid) with a test compound from Day 1 to Day 28 of the study. After 7 days acclimation to the diet, the non-treated groups in each arm were dosed (0.1 mL, ip, bid) with vehicle from Day 1 to Day 28 of the study. Body weight was monitored twice per week and on Day 28. After sacrifice, blood glucose, body weight, body mass, serum MCP-1 and insulin levels were also recorded. MCP-1 was measured by ELISA. The statistical analysis for p value was performed using the program Prism (Graphpad, Monrovia, Calif.) with the Student t-test (unpaired). All data are presented as the mean ± standard error of the mean (SEM).
# NON (NONcNZO10/LtJ) mice [2] = assay: Insulin sensitivity model: Day 28 blood samples and body weight; conditions: for Blood HbA1c / Body Weight / Plasma FFA / Plasma Glucose / Plasma Insulin / Plasma MCP-1: mean ± SEM
# Experimental: as §1, with “5. After sacrifice on Day 28, blood samples were collected to measure HbA1c, plasma levels of glucose, plasma insulin, FFA (free fatty acids) and MCP-1.” for “5.”
# DIO mice = assay: Diet induced obesity (DIO) model, treatment arm TA1 (high fat diet); conditions: for Body Weight Gain / Change in Fat Mass / Change in Lean Mass / Change in Water / Food Intake / Plasma MCP-1: TA1 DIO mice, high fat diet, mean ± SEM
# Experimental: as §2
smiles,measurement,setting,value
"O=C(O)[C@H](C1CCN(C(=O)/C=C/c2cc(F)c(F)c(F)c2)CC1)N1CCC(c2c[nH]c3ccccc23)CC1 [(S)-{[4-(1H-indol-3-yl)-piperidin-1-yl]}-{1-[(2E)-3-(3,4,5-trifluoro-phenyl)-acryloyl]-piperidin-4-yl}-acetic acid]",Blood Glucose,"NON (NONcNZO10/LtJ) mice [1]; Day 7, 25 mg/kg ip bid, 0 min after insulin",333 ± 44 mg/dL
same,Blood Glucose,"NON (NONcNZO10/LtJ) mice [1]; Day 7, 25 mg/kg ip bid, 15 min after insulin",213 ± 40 mg/dL
same,Blood Glucose,"NON (NONcNZO10/LtJ) mice [1]; Day 7, 25 mg/kg ip bid, 30 min after insulin",157 ± 27 mg/dL
same,Blood Glucose,"NON (NONcNZO10/LtJ) mice [1]; Day 7, 25 mg/kg ip bid, 60 min after insulin",146 ± 21 mg/dL
same,Blood Glucose,"NON (NONcNZO10/LtJ) mice [1]; Day 7, 25 mg/kg ip bid, 90 min after insulin",146 ± 18 mg/dL
same,Blood Glucose,"NON (NONcNZO10/LtJ) mice [1]; Day 7, 25 mg/kg ip bid, 120 min after insulin",164 ± 23 mg/dL
same,Blood Glucose,"NON (NONcNZO10/LtJ) mice [1]; Day 7, 50 mg/kg ip bid, 0 min after insulin",325 ± 54 mg/dL
same,Blood Glucose,"NON (NONcNZO10/LtJ) mice [1]; Day 7, 50 mg/kg ip bid, 15 min after insulin",213 ± 51 mg/dL
same,Blood Glucose,"NON (NONcNZO10/LtJ) mice [1]; Day 7, 50 mg/kg ip bid, 30 min after insulin",136 ± 20 mg/dL
same,Blood Glucose,"NON (NONcNZO10/LtJ) mice [1]; Day 7, 50 mg/kg ip bid, 60 min after insulin",115 ± 13 mg/dL
same,Blood Glucose,"NON (NONcNZO10/LtJ) mice [1]; Day 7, 50 mg/kg ip bid, 90 min after insulin",115 ± 8 mg/dL
same,Blood Glucose,"NON (NONcNZO10/LtJ) mice [1]; Day 7, 50 mg/kg ip bid, 120 min after insulin",142 ± 8 mg/dL
same,Blood Glucose,"NON (NONcNZO10/LtJ) mice [1]; Day 7, 100 mg/kg ip bid, 0 min after insulin",230 ± 22 mg/dL
same,Blood Glucose,"NON (NONcNZO10/LtJ) mice [1]; Day 7, 100 mg/kg ip bid, 15 min after insulin",141 ± 16 mg/dL
same,Blood Glucose,"NON (NONcNZO10/LtJ) mice [1]; Day 7, 100 mg/kg ip bid, 30 min after insulin",105 ± 9 mg/dL
same,Blood Glucose,"NON (NONcNZO10/LtJ) mice [1]; Day 7, 100 mg/kg ip bid, 60 min after insulin",82 ± 8 mg/dL
same,Blood Glucose,"NON (NONcNZO10/LtJ) mice [1]; Day 7, 100 mg/kg ip bid, 90 min after insulin",83 ± 7 mg/dL
same,Blood Glucose,"NON (NONcNZO10/LtJ) mice [1]; Day 7, 100 mg/kg ip bid, 120 min after insulin",98 ± 8 mg/dL
same,Blood Glucose,"NON (NONcNZO10/LtJ) mice [1]; Day 21, 25 mg/kg ip bid, 0 min after insulin",465 ± 34 mg/dL
same,Blood Glucose,"NON (NONcNZO10/LtJ) mice [1]; Day 21, 25 mg/kg ip bid, 15 min after insulin",367 ± 51 mg/dL
same,Blood Glucose,"NON (NONcNZO10/LtJ) mice [1]; Day 21, 25 mg/kg ip bid, 30 min after insulin",247 ± 53 mg/dL
same,Blood Glucose,"NON (NONcNZO10/LtJ) mice [1]; Day 21, 25 mg/kg ip bid, 60 min after insulin",209 ± 56 mg/dL
same,Blood Glucose,"NON (NONcNZO10/LtJ) mice [1]; Day 21, 25 mg/kg ip bid, 90 min after insulin",198 ± 51 mg/dL
same,Blood Glucose,"NON (NONcNZO10/LtJ) mice [1]; Day 21, 25 mg/kg ip bid, 120 min after insulin",237 ± 43 mg/dL
same,Blood Glucose,"NON (NONcNZO10/LtJ) mice [1]; Day 21, 50 mg/kg ip bid, 0 min after insulin",434 ± 71 mg/dL
same,Blood Glucose,"NON (NONcNZO10/LtJ) mice [1]; Day 21, 50 mg/kg ip bid, 15 min after insulin",303 ± 56 mg/dL
same,Blood Glucose,"NON (NONcNZO10/LtJ) mice [1]; Day 21, 50 mg/kg ip bid, 30 min after insulin",186 ± 32 mg/dL
same,Blood Glucose,"NON (NONcNZO10/LtJ) mice [1]; Day 21, 50 mg/kg ip bid, 60 min after insulin",162 ± 37 mg/dL
same,Blood Glucose,"NON (NONcNZO10/LtJ) mice [1]; Day 21, 50 mg/kg ip bid, 90 min after insulin",168 ± 47 mg/dL
same,Blood Glucose,"NON (NONcNZO10/LtJ) mice [1]; Day 21, 50 mg/kg ip bid, 120 min after insulin",214 ± 49 mg/dL
same,Blood Glucose,"NON (NONcNZO10/LtJ) mice [1]; Day 21, 100 mg/kg ip bid, 0 min after insulin",332 ± 38 mg/dL
same,Blood Glucose,"NON (NONcNZO10/LtJ) mice [1]; Day 21, 100 mg/kg ip bid, 15 min after insulin",247 ± 28 mg/dL
same,Blood Glucose,"NON (NONcNZO10/LtJ) mice [1]; Day 21, 100 mg/kg ip bid, 30 min after insulin",152 ± 15 mg/dL
same,Blood Glucose,"NON (NONcNZO10/LtJ) mice [1]; Day 21, 100 mg/kg ip bid, 60 min after insulin",144 ± 21 mg/dL
same,Blood Glucose,"NON (NONcNZO10/LtJ) mice [1]; Day 21, 100 mg/kg ip bid, 90 min after insulin",158 ± 28 mg/dL
same,Blood Glucose,"NON (NONcNZO10/LtJ) mice [1]; Day 21, 100 mg/kg ip bid, 120 min after insulin",228 ± 43 mg/dL
same,blood glucose control,NON (NONcNZO10/LtJ) mice [1]; NON mice,improved
same,insulin sensitivity,NON (NONcNZO10/LtJ) mice [1]; NON mice,increased
same,Body Weight Gain,lean mice,2.3 ± 1.5 g
same,Change in Fat Mass,lean mice,0.6 ± 0.3 g
same,Change in Lean Mass,lean mice,3.4 ± 0.8 g
same,Change in Water,lean mice,3.1 ± 0.7 g
same,Food Intake,lean mice,22.8 ± 1.7 g/7 days
same,Plasma MCP-1,lean mice,646.8 ± 112.5 pg/mL
same,Blood HbA1c,"NON (NONcNZO10/LtJ) mice [2]; Day 28, 25 mg/kg ip bid",6.6 ± 0.5%
same,Body Weight,"NON (NONcNZO10/LtJ) mice [2]; Day 28, 25 mg/kg ip bid",45.2 ± 1.4 g
same,Plasma FFA,"NON (NONcNZO10/LtJ) mice [2]; Day 28, 25 mg/kg ip bid",1.2 ± 0.4 mM
same,Plasma Glucose,"NON (NONcNZO10/LtJ) mice [2]; Day 28, 25 mg/kg ip bid",413 ± 52 mg/dL
same,Plasma Insulin,"NON (NONcNZO10/LtJ) mice [2]; Day 28, 25 mg/kg ip bid",5.8 ± 0.7 ng/mL
same,Plasma MCP-1,"NON (NONcNZO10/LtJ) mice [2]; Day 28, 25 mg/kg ip bid",56.6 ± 3.0 pg/mL
same,Blood HbA1c,"NON (NONcNZO10/LtJ) mice [2]; Day 28, 50 mg/kg ip bid",6.7 ± 0.7%
same,Body Weight,"NON (NONcNZO10/LtJ) mice [2]; Day 28, 50 mg/kg ip bid",42.6 ± 0.8 g
same,Plasma FFA,"NON (NONcNZO10/LtJ) mice [2]; Day 28, 50 mg/kg ip bid",1.0 ± 0.2 mM
same,Plasma Glucose,"NON (NONcNZO10/LtJ) mice [2]; Day 28, 50 mg/kg ip bid",358 ± 58 mg/dL
same,Plasma Insulin,"NON (NONcNZO10/LtJ) mice [2]; Day 28, 50 mg/kg ip bid",5.4 ± 0.9 ng/mL
same,Plasma MCP-1,"NON (NONcNZO10/LtJ) mice [2]; Day 28, 50 mg/kg ip bid",177.4 ± 63.4 pg/mL
same,Blood HbA1c,"NON (NONcNZO10/LtJ) mice [2]; Day 28, 100 mg/kg ip bid",5.0 ± 0.2 %
same,Body Weight,"NON (NONcNZO10/LtJ) mice [2]; Day 28, 100 mg/kg ip bid",43.6 ± 0.9 g
same,Plasma FFA,"NON (NONcNZO10/LtJ) mice [2]; Day 28, 100 mg/kg ip bid",0.6 ± 0.1 mM
same,Plasma Glucose,"NON (NONcNZO10/LtJ) mice [2]; Day 28, 100 mg/kg ip bid",190 ± 15 mg/dL
same,Plasma Insulin,"NON (NONcNZO10/LtJ) mice [2]; Day 28, 100 mg/kg ip bid",7.9 ± 1.1 ng/mL
same,Plasma MCP-1,"NON (NONcNZO10/LtJ) mice [2]; Day 28, 100 mg/kg ip bid",555.6 ± 104.5 pg/mL
same,HbA1c levels,NON (NONcNZO10/LtJ) mice [2]; NON mice,significantly reduced
same,body weight between treated and non-treated groups,NON (NONcNZO10/LtJ) mice [2]; NON mice,without a significant difference
same,body fat mass gain,DIO mice; DIO model in mice,significantly reduced
same,lean mass,DIO mice; DIO model in mice,no change
same,weight gain,DIO mice; DIO model in mice,significantly reduced
same,Body Weight Gain,DIO mice; 25 mg/kg ip bid Day 1-28,3.8 ± 1.2 g
same,Change in Fat Mass,DIO mice; 25 mg/kg ip bid Day 1-28,0.9 ± 0.7 g
same,Change in Lean Mass,DIO mice; 25 mg/kg ip bid Day 1-28,3.1 ± 0.9 g
same,Change in Water,DIO mice; 25 mg/kg ip bid Day 1-28,2.8 ± 0.8 g
same,Food Intake,DIO mice; 25 mg/kg ip bid Day 1-28,14.0 ± 1.6 g/7 days
same,Plasma MCP-1,DIO mice; 25 mg/kg ip bid Day 1-28,69.2 ± 5.6 pg/mL
same,Body Weight Gain,DIO mice; 50 mg/kg ip bid Day 1-28,3.4 ± 1.1 g
same,Change in Fat Mass,DIO mice; 50 mg/kg ip bid Day 1-28,0.4 ± 0.6 g
same,Change in Lean Mass,DIO mice; 50 mg/kg ip bid Day 1-28,4.9 ± 0.9 g
same,Change in Water,DIO mice; 50 mg/kg ip bid Day 1-28,4.5 ± 0.8 g
same,Food Intake,DIO mice; 50 mg/kg ip bid Day 1-28,13.5 ± 1.8 g/7 days
same,Plasma MCP-1,DIO mice; 50 mg/kg ip bid Day 1-28,98.3 ± 7.6 pg/mL
same,Body Weight Gain,DIO mice; 100 mg/kg ip bid Day 1-28,2.3 ± 1.8 g
same,Change in Fat Mass,DIO mice; 100 mg/kg ip bid Day 1-28,0.2 ± 0.3 g
same,Change in Lean Mass,DIO mice; 100 mg/kg ip bid Day 1-28,3.4 ± 0.3 g
same,Change in Water,DIO mice; 100 mg/kg ip bid Day 1-28,2.9 ± 0.3 g
same,Food Intake,DIO mice; 100 mg/kg ip bid Day 1-28,14.5 ± 3.6 g/7 days
same,Plasma MCP-1,DIO mice; 100 mg/kg ip bid Day 1-28,503.5 ± 69.7 pg/mL
